Target: DCN1 (Homo sapiens (Human), UniProt Q96GG9)
Experiment: TR-FRET binding assay (biotin-DCN1 / Ac-UBE2M12-AlexaFluor488)
Conditions: mean ± SD (n); read-out: DCN1_TRFRET Mean EC50
Description: • IC50 values were generated using our TR-FRET binding assay and are represented as the mean of three replicates with errors reported as the standard deviation.
The assay cocktail was then incubated for 1 h at room temperature and distributed using a WellMate instrument (Matrix). Compounds to be screened were added to assay plates from DMSO stock solutions by pin transfer using 50SS pins (V&P Scientific). […] All compounds were tested in triplicate or more.

Chain of DCN1 (Q96GG9 whole entry): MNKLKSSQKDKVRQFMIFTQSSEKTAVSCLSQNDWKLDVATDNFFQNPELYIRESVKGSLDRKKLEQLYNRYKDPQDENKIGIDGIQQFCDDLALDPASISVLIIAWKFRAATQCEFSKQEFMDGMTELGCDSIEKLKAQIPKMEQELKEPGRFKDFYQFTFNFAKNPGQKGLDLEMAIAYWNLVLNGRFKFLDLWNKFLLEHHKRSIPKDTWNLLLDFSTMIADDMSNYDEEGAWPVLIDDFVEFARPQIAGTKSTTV

Row | Compound | EC50
1 | CCC(C)n1nc(C)c2c1N(C(C)=O)C(=O)[C@@H](NC(=O)c1cccc(C)c1)[C@H]2c1ccc(F)cc1 (stereo partly drawn) [RG-0005665, N-[(4S,5S)-7-acetyl-1-(butan-2-yl)-4-(4-fluorophenyl)-3-methyl-6-oxo-1H,4H,5H,6H,7H-pyrazolo[3,4-b]pyridin-5-yl]-3-methylbenzamide] | 5310 ± 850 nM
2 | CCN1C(=O)[C@@H](NC(=O)c2cccc(F)c2)[C@@H](c2ccc(F)cc2)c2c(C)nn(-c3ccccc3)c21 [RG-0013062, N-[(4S,5S)-7-ethyl-4-(4-fluorophenyl)-3-methyl-6-oxo-1-phenyl-1H,4H,5H,6H,7H-pyrazolo[3,4-b]pyridin-5-yl]-3-fluorobenzamide] | 1810 ± 153 nM
3 | CCC(C)n1nc(C)c2c1N(CC)C(=O)[C@@H](NC(=O)c1cccc(C)c1)[C@H]2c1ccc(F)cc1 (stereo partly drawn) [RG-0008861, N-[(4S,5S)-1-(butan-2-yl)-7-ethyl-4-(4-fluorophenyl)-3-methyl-6-oxo-1H,4H,5H,6H,7H-pyrazolo[3,4-b]pyridin-5-yl]-3-methylbenzamide] | 827 ± 371 nM
4 | CCN1C(=O)[C@@H](NC(=O)c2cccc(C(F)(F)F)c2)[C@@H](c2ccc(F)cc2)c2c(CNC(=O)CCCC[C@@H]3SC[C@@H]4NC(=O)N[C@@H]43)nn(-c3ccccc3)c21 [RG-0014155, N-[(4S,5S)-3-({5-[(3aS,4S,6aR)-2-oxo-hexahydro-1H-thieno[3,4-d]imidazol-4-yl]pentanamido}methyl)-7-ethyl-4-(4-fluorophenyl)-6-oxo-1-phenyl-1H,4H,5H,6H,7H-pyrazolo[3,4-b]pyridin-5-yl]-3-(trifluoromethyl)benzamide] | 123 ± 22.5 nM
5 | CCCn1nc(C)c2c1N(CC)C(=O)[C@@H](NC(=O)c1cccc(C)c1)[C@H]2c1ccc(F)cc1 [RG-0008665, N-[(4S,5S)-7-ethyl-4-(4-fluorophenyl)-3-methyl-6-oxo-1-propyl-1H,4H,5H,6H,7H-pyrazolo[3,4-b]pyridin-5-yl]-3-methylbenzamide] | 244 ± 20.8 nM
6 | CCN1C(=O)[C@@H](N(CC)C(=O)c2cccc(C)c2)[C@@H](c2ccc(F)cc2)c2c(C)nn(-c3ccccc3)c21 [RG-0009505, N-ethyl-N-[(4S,5S)-7-ethyl-4-(4-fluorophenyl)-3-methyl-6-oxo-1-phenyl-1H,4H,5H,6H,7H-pyrazolo[3,4-b]pyridin-5-yl]-3-methylbenzamide] | 2620 ± 404 nM
7 | CCN1C(=O)[C@@H](NC(=O)c2cccc(C(F)(F)F)c2)[C@@H](c2ccc(F)nc2)c2c(CO)nn(-c3ccccc3)c21 [RG-0013992, N-[(4S,5S)-7-ethyl-4-(6-fluoropyridin-3-yl)-3-(hydroxymethyl)-6-oxo-1-phenyl-1H,4H,5H,6H,7H-pyrazolo[3,4-b]pyridin-5-yl]-3-(trifluoromethyl)benzamide] | 157 ± 19.2 nM
8 | CCCN1C(=O)[C@@H](NC(=O)c2cccc(C)c2)[C@@H](c2ccc(F)cc2)c2c(C)nn(-c3ccccc3)c21 [RG-0007415, N-[(4S,5S)-4-(4-fluorophenyl)-3-methyl-6-oxo-1-phenyl-7-propyl-1H,4H,5H,6H,7H-pyrazolo[3,4-b]pyridin-5-yl]-3-methylbenzamide] | 1040 ± 204 nM
9 | CCN1C(=O)[C@@H](NC(=O)c2cccc(C(F)(F)F)c2)[C@@H](c2ccc(F)cc2)c2c(CNS(=O)(=O)NC(=O)OC(C)(C)C)nn(-c3ccccc3)c21 [RG-0014160, tert-butyl N-({[(4S,5S)-7-ethyl-4-(4-fluorophenyl)-6-oxo-1-phenyl-5-[3-(trifluoromethyl)benzamido]-1H,4H,5H,6H,7H-pyrazolo[3,4-b]pyridin-3-yl]methyl}sulfamoyl)carbamate] | 194 ± 19.9 nM
10 | CCN1C(=O)[C@@H](NC(=O)c2cccc(C)c2)[C@@H](C(C)C)c2c(C)nn(-c3ccccc3)c21 [RG-0008876, N-[(4S,5S)-7-ethyl-3-methyl-6-oxo-1-phenyl-4-(propan-2-yl)-1H,4H,5H,6H,7H-pyrazolo[3,4-b]pyridin-5-yl]-3-methylbenzamide] | 1750 ± 165 nM

Reference: patent US12409171B2, “Pharmaceutically active pyrazolo-pyridone modulators of DCN1/2-mediated cullin neddylation” (UNIVERSITY OF KENTUCKY RESEARCH FOUNDATION, priority 2019, dated 2025)
